Source: patent US20110218103A1, “Fluoroalkyl-substituted 2-amidobenzimidazoles” (BAYER CROPSCIENCE AG, priority 2010, published 2011)

Tests used:
Assay in all cases: Drought stress test on crop plants, spray application in greenhouse, visual damage rating
Type in all cases: in vivo
Conditions in all cases: mean of three results
Hordeum vulgare (HORVS) = system: Hordeum vulgare (HORVS)
Experimental: Seeds of monocotyledonous and dicotyledonous crop plants were placed in sandy loam in wood-fiber pots, covered with soil and cultivated in a greenhouse under good growth conditions. The test plants were treated at the early leaf stage (BBCH10-BBCH13). To ensure uniform water supply before commencement of stress, the potted plants were supplied with the maximum amount of water immediately beforehand by dam irrigation and, after application, transferred in plastic inserts in order to prevent subsequent, excessively rapid drying. The inventive compounds, formulated in the form of wettable powders (WP), wettable granules (WG), suspension concentrates (SC) or emulsion concentrates (EC), were sprayed onto the green parts of the plants as an aqueous suspension at an equivalent water application rate of 600 l/ha with addition of 0.2% wetting agent (agrotin). Substance application was followed immediately by stress treatment of the plants (cold or drought stress). For cold stress treatment, the plants were kept under the following controlled conditions: Drought stress was induced by gradual drying out under the following conditions: “day”: 14 hours with illumination at 26° C. “night”: 10 hours without illumination at 18° C. The duration of the respective stress phases was guided mainly by the state of the untreated, stressed control plants and thus varies from crop to crop. It was ended (by re-irrigating or transfer to a greenhouse with good growth conditions) as soon as irreversible damage is observed on the untreated, stressed control plants. In the case of dicotyledonous crops, for example oilseed rape and soya, the duration of the drought stress phase was between 3 and 5 days, in the case of monocotyledonous crops, for example wheat, barley or corn, between 6 and 10 days. The duration of the cold stress phase varied between 12 and 14 days. The end of the stress phase was followed by an approx. 5-7-day recovery phase, during which the plants were once again kept under good growth conditions in a greenhouse. In order to rule out any influence of the effects observed by any fungicidal action of the test compounds, it was additionally ensured that the tests proceed without fungal infection and without infection pressure. After the recovery phase had ended, the intensities of damage were rated visually compared to untreated, unstressed controls of the same age (in the case of drought stress) or the same growth stage (in the case of cold stress). The intensity of damage was first assessed as a percentage (100%=plants have died, 0%=like control plants). These values were then used to calculate the efficacy of the test compounds (=percentage reduction in the intensity of damage as a result of substance application) by the following formula: [formula] EF: efficacy (%) DVus: damage value of the untreated, stressed control DVts: damage value of the plants treated with test compound The tables below list mean values in each case from three results of the same test. Effects of selected compounds of the formula (I) under drought stress: HORVS=Hordeum vulgare

Brassica napus (BRSNS) = system: Brassica napus (BRSNS)
Experimental: Seeds of monocotyledonous and dicotyledonous crop plants were placed in sandy loam in wood-fiber pots, covered with soil and cultivated in a greenhouse under good growth conditions. The test plants were treated at the early leaf stage (BBCH10-BBCH13). To ensure uniform water supply before commencement of stress, the potted plants were supplied with the maximum amount of water immediately beforehand by dam irrigation and, after application, transferred in plastic inserts in order to prevent subsequent, excessively rapid drying. The inventive compounds, formulated in the form of wettable powders (WP), wettable granules (WG), suspension concentrates (SC) or emulsion concentrates (EC), were sprayed onto the green parts of the plants as an aqueous suspension at an equivalent water application rate of 600 l/ha with addition of 0.2% wetting agent (agrotin). Substance application was followed immediately by stress treatment of the plants (cold or drought stress). For cold stress treatment, the plants were kept under the following controlled conditions: Drought stress was induced by gradual drying out under the following conditions: “day”: 14 hours with illumination at 26° C. “night”: 10 hours without illumination at 18° C. The duration of the respective stress phases was guided mainly by the state of the untreated, stressed control plants and thus varies from crop to crop. It was ended (by re-irrigating or transfer to a greenhouse with good growth conditions) as soon as irreversible damage is observed on the untreated, stressed control plants. In the case of dicotyledonous crops, for example oilseed rape and soya, the duration of the drought stress phase was between 3 and 5 days, in the case of monocotyledonous crops, for example wheat, barley or corn, between 6 and 10 days. The duration of the cold stress phase varied between 12 and 14 days. The end of the stress phase was followed by an approx. 5-7-day recovery phase, during which the plants were once again kept under good growth conditions in a greenhouse. In order to rule out any influence of the effects observed by any fungicidal action of the test compounds, it was additionally ensured that the tests proceed without fungal infection and without infection pressure. After the recovery phase had ended, the intensities of damage were rated visually compared to untreated, unstressed controls of the same age (in the case of drought stress) or the same growth stage (in the case of cold stress). The intensity of damage was first assessed as a percentage (100%=plants have died, 0%=like control plants). These values were then used to calculate the efficacy of the test compounds (=percentage reduction in the intensity of damage as a result of substance application) by the following formula: [formula] EF: efficacy (%) DVus: damage value of the untreated, stressed control DVts: damage value of the plants treated with test compound The tables below list mean values in each case from three results of the same test. Effects of selected compounds of the formula (I) under drought stress: BRSNS=Brassica napus

Zea mays (ZEAMX) = system: Zea mays (ZEAMX)
Experimental: Seeds of monocotyledonous and dicotyledonous crop plants were placed in sandy loam in wood-fiber pots, covered with soil and cultivated in a greenhouse under good growth conditions. The test plants were treated at the early leaf stage (BBCH10-BBCH13). To ensure uniform water supply before commencement of stress, the potted plants were supplied with the maximum amount of water immediately beforehand by dam irrigation and, after application, transferred in plastic inserts in order to prevent subsequent, excessively rapid drying. The inventive compounds, formulated in the form of wettable powders (WP), wettable granules (WG), suspension concentrates (SC) or emulsion concentrates (EC), were sprayed onto the green parts of the plants as an aqueous suspension at an equivalent water application rate of 600 l/ha with addition of 0.2% wetting agent (agrotin). Substance application was followed immediately by stress treatment of the plants (cold or drought stress). For cold stress treatment, the plants were kept under the following controlled conditions: Drought stress was induced by gradual drying out under the following conditions: “day”: 14 hours with illumination at 26° C. “night”: 10 hours without illumination at 18° C. The duration of the respective stress phases was guided mainly by the state of the untreated, stressed control plants and thus varies from crop to crop. It was ended (by re-irrigating or transfer to a greenhouse with good growth conditions) as soon as irreversible damage is observed on the untreated, stressed control plants. In the case of dicotyledonous crops, for example oilseed rape and soya, the duration of the drought stress phase was between 3 and 5 days, in the case of monocotyledonous crops, for example wheat, barley or corn, between 6 and 10 days. The duration of the cold stress phase varied between 12 and 14 days. The end of the stress phase was followed by an approx. 5-7-day recovery phase, during which the plants were once again kept under good growth conditions in a greenhouse. In order to rule out any influence of the effects observed by any fungicidal action of the test compounds, it was additionally ensured that the tests proceed without fungal infection and without infection pressure. After the recovery phase had ended, the intensities of damage were rated visually compared to untreated, unstressed controls of the same age (in the case of drought stress) or the same growth stage (in the case of cold stress). The intensity of damage was first assessed as a percentage (100%=plants have died, 0%=like control plants). These values were then used to calculate the efficacy of the test compounds (=percentage reduction in the intensity of damage as a result of substance application) by the following formula: [formula] EF: efficacy (%) DVus: damage value of the untreated, stressed control DVts: damage value of the plants treated with test compound The tables below list mean values in each case from three results of the same test. Effects of selected compounds of the formula (I) under drought stress: ZEAMX=Zea mays

[1] = system: Triticum aestivum (TRZAS)
Experimental: Seeds of monocotyledonous and dicotyledonous crop plants were placed in sandy loam in wood-fiber pots, covered with soil and cultivated in a greenhouse under good growth conditions. The test plants were treated at the early leaf stage (BBCH10-BBCH13). To ensure uniform water supply before commencement of stress, the potted plants were supplied with the maximum amount of water immediately beforehand by dam irrigation and, after application, transferred in plastic inserts in order to prevent subsequent, excessively rapid drying. The inventive compounds, formulated in the form of wettable powders (WP), wettable granules (WG), suspension concentrates (SC) or emulsion concentrates (EC), were sprayed onto the green parts of the plants as an aqueous suspension at an equivalent water application rate of 600 l/ha with addition of 0.2% wetting agent (agrotin). Substance application was followed immediately by stress treatment of the plants (cold or drought stress). For cold stress treatment, the plants were kept under the following controlled conditions: Drought stress was induced by gradual drying out under the following conditions: “day”: 14 hours with illumination at 26° C. “night”: 10 hours without illumination at 18° C. The duration of the respective stress phases was guided mainly by the state of the untreated, stressed control plants and thus varies from crop to crop. It was ended (by re-irrigating or transfer to a greenhouse with good growth conditions) as soon as irreversible damage is observed on the untreated, stressed control plants. In the case of dicotyledonous crops, for example oilseed rape and soya, the duration of the drought stress phase was between 3 and 5 days, in the case of monocotyledonous crops, for example wheat, barley or corn, between 6 and 10 days. The duration of the cold stress phase varied between 12 and 14 days. The end of the stress phase was followed by an approx. 5-7-day recovery phase, during which the plants were once again kept under good growth conditions in a greenhouse. In order to rule out any influence of the effects observed by any fungicidal action of the test compounds, it was additionally ensured that the tests proceed without fungal infection and without infection pressure. After the recovery phase had ended, the intensities of damage were rated visually compared to untreated, unstressed controls of the same age (in the case of drought stress) or the same growth stage (in the case of cold stress). The intensity of damage was first assessed as a percentage (100%=plants have died, 0%=like control plants). These values were then used to calculate the efficacy of the test compounds (=percentage reduction in the intensity of damage as a result of substance application) by the following formula: [formula] EF: efficacy (%) DVus: damage value of the untreated, stressed control DVts: damage value of the plants treated with test compound The tables below list mean values in each case from three results of the same test. Effects of selected compounds of the formula (I) under drought stress: TRZAS=Triticum aestivum

NC(=O)c1cccc2[nH]c(C(F)(F)Cl)nc12 [1-1, 2-[chloro(difluoro)methyl]-1H-benzimidazole-4-carboxamide]
EF (HORVS), efficacy = percentage reduction in the intensity of damage (Hordeum vulgare (HORVS); 100 g/ha): >5%

CCCCS(CCCC)=NC(=O)c1cccc2[nH]c(C(F)(F)F)nc12 [1-5, N-(dibutyl-lambda^4-sulfanylidene)-2-(trifluoromethyl)-1H-benzimidazole-4-carboxamide]
EF (BRSNS), efficacy = percentage reduction in the intensity of damage (Brassica napus (BRSNS); 25 g/ha): >5%
EF (ZEAMX), efficacy = percentage reduction in the intensity of damage (Zea mays (ZEAMX); 50 g/ha): >5%
EF (TRZAS), efficacy = percentage reduction in the intensity of damage ([1]; 250 g/ha): >5%

COC(F)(F)c1nc2c(C(N)=O)cccc2[nH]1 [1-6, 2-[difluoro(methoxy)methyl]-1H-benzimidazole-4-carboxamide]
EF (BRSNS), efficacy = percentage reduction in the intensity of damage (Brassica napus (BRSNS); 25 g/ha): >5%
EF (ZEAMX), efficacy = percentage reduction in the intensity of damage (Zea mays (ZEAMX); 25 g/ha): >5%
EF (TRZAS), efficacy = percentage reduction in the intensity of damage ([1]; 25 g/ha): >5%

NC(=O)c1cccc2[nH]c(C(F)C(F)(F)F)nc12 (stereo not drawn) [1-8]
EF (HORVS), efficacy = percentage reduction in the intensity of damage (Hordeum vulgare (HORVS); 50 g/ha): >5%
EF (BRSNS), efficacy = percentage reduction in the intensity of damage (Brassica napus (BRSNS); 50 g/ha): >5%
EF (ZEAMX), efficacy = percentage reduction in the intensity of damage (Zea mays (ZEAMX); 25 g/ha): >5%

CC(C)NC(=O)c1cccc2[nH]c(C(F)(F)F)nc12 [1-21]
EF (HORVS), efficacy = percentage reduction in the intensity of damage (Hordeum vulgare (HORVS); 25 g/ha): >5%

Cn1c(C(F)(F)F)nc2c(C(N)=O)cccc21 [1-27]
EF (HORVS), efficacy = percentage reduction in the intensity of damage (Hordeum vulgare (HORVS); 100 g/ha): >5%

CCCCOC(F)(F)c1nc2c(C(N)=O)cccc2[nH]1 [1-50]
EF (BRSNS), efficacy = percentage reduction in the intensity of damage (Brassica napus (BRSNS); 25 g/ha): >5%
EF (ZEAMX), efficacy = percentage reduction in the intensity of damage (Zea mays (ZEAMX); 250 g/ha): >5%
EF (TRZAS), efficacy = percentage reduction in the intensity of damage ([1]; 250 g/ha): >5%

COCCOC(F)(F)c1nc2c(C(N)=O)cccc2[nH]1 [1-52]
EF (BRSNS), efficacy = percentage reduction in the intensity of damage (Brassica napus (BRSNS); 25 g/ha): >5%
EF (ZEAMX), efficacy = percentage reduction in the intensity of damage (Zea mays (ZEAMX); 25 g/ha): >5%
EF (TRZAS), efficacy = percentage reduction in the intensity of damage ([1]; 25 g/ha): >5%

CCCCn1c(C(F)(F)F)nc2c(C(N)=O)cccc21 [1-69]
EF (BRSNS), efficacy = percentage reduction in the intensity of damage (Brassica napus (BRSNS); 25 g/ha): >5%
EF (TRZAS), efficacy = percentage reduction in the intensity of damage ([1]; 25 g/ha): >5%

NC(=O)c1cccc2[nH]c(C(F)(F)OCC3CC3)nc12 [1-84]
EF (ZEAMX), efficacy = percentage reduction in the intensity of damage (Zea mays (ZEAMX); 25 g/ha): >5%

C=CCCOC(F)(F)c1nc2c(C(N)=O)cccc2[nH]1 [1-89]
EF (BRSNS), efficacy = percentage reduction in the intensity of damage (Brassica napus (BRSNS); 250 g/ha): >5%
EF (ZEAMX), efficacy = percentage reduction in the intensity of damage (Zea mays (ZEAMX); 250 g/ha): >5%

CCC(C)COC(F)(F)c1nc2c(C(N)=O)cccc2[nH]1 (stereo not drawn) [1-90]
EF (ZEAMX), efficacy = percentage reduction in the intensity of damage (Zea mays (ZEAMX); 250 g/ha): >5%
EF (TRZAS), efficacy = percentage reduction in the intensity of damage ([1]; 250 g/ha): >5%

NC(=O)c1cc(Cl)cc2[nH]c(C(F)F)nc12 [2-7]
EF (HORVS), efficacy = percentage reduction in the intensity of damage (Hordeum vulgare (HORVS); 25 g/ha): >5%
EF (BRSNS), efficacy = percentage reduction in the intensity of damage (Brassica napus (BRSNS); 25 g/ha): >5%
EF (TRZAS), efficacy = percentage reduction in the intensity of damage ([1]; 25 g/ha): >5%

Cc1cc(C(N)=O)c2nc(C(F)F)[nH]c2c1 [4-7]
EF (HORVS), efficacy = percentage reduction in the intensity of damage (Hordeum vulgare (HORVS); 25 g/ha): >5%
EF (BRSNS), efficacy = percentage reduction in the intensity of damage (Brassica napus (BRSNS); 25 g/ha): >5%
EF (TRZAS), efficacy = percentage reduction in the intensity of damage ([1]; 25 g/ha): >5%

NC(=O)c1cc(F)cc2[nH]c(C(F)C(F)(F)F)nc12 (stereo not drawn) [5-8]
EF (BRSNS), efficacy = percentage reduction in the intensity of damage (Brassica napus (BRSNS); 250 g/ha): >5%
EF (TRZAS), efficacy = percentage reduction in the intensity of damage ([1]; 25 g/ha): >5%
